Literature values, collected in patent US20110086355A1, “BRCA1 mRNA EXPRESSION LEVELS PREDICT SURVIVAL IN BREAST CANCER PATIENTS TREATED WITH NEOADJUVANT CHEMOTHERAPY” (PANGAEA BIOTECH, S.A., priority 2008, published 2011).

Columns and labels:
breast cancer cell line = details: BRCA1 mRNA determined by RT-QPCR
[1] = test system: HCC1937 breast cancer cell line; details: wild-type BRCA1 reconstituted vs BRCA1-negative HCC1937
[2] = test system: SKOV-3 human ovarian cancer cell line
[3] = test system: Mouse models carrying conditional disruption of BRCA1

| Compound | change of sensitivity after decreased BRCA1 mRNA expression (breast cancer cell line) | sensitivity of BRCA1-disrupted mouse models [3] | further results |
| --- | --- | --- | --- |
| CC[C@]1(O)C[C@H]2CN(CCc3c([nH]c4ccccc34)[C@@](C(=O)OC)(c3cc4c(cc3OC)N(C=O)[C@H]3[C@@](O)(C(=O)OC)[C@H](OC(C)=O)[C@]5(CC)C=CCN6CC[C@]43[C@@H]65)C2)C1 [vincristine] | greater resistance |  |  |
| CC(=O)O[C@H]1C(=O)[C@@]2(C)[C@H]([C@H](OC(=O)c3ccccc3)[C@]3(O)C[C@H](OC(=O)[C@H](O)[C@@H](NC(=O)c4ccccc4)c4ccccc4)C(C)=C1C3(C)C)[C@]1(OC(C)=O)CO[C@@H]1C[C@@H]2O [paclitaxel] | greater resistance |  |  |
| COc1cc([C@@H]2c3cc4c(cc3[C@@H](O[C@@H]3O[C@@H]5CO[C@@H](C)O[C@H]5[C@H](O)[C@H]3O)[C@H]3COC(=O)[C@H]23)OCO4)cc(OC)c1O [etoposide] | greater sensitivity |  |  |
| N.N.[Cl][Pt][Cl] [cisplatin] | greater sensitivity |  | increase in resistance [1]: 20 fold; resistance after upregulation of BRCA1 expression [2]: increased cisplatin resistance |
| CC/C(=C(\c1ccccc1)c1ccc(OCCN(C)C)cc1)c1ccccc1 [tamoxifen] |  | resistant |  |
| COc1cccc2c1C(=O)c1c(O)c3c(c(O)c1C2=O)C[C@@](O)(C(=O)CO)C[C@@H]3O[C@H]1C[C@H](N)[C@H](O)[C@H](C)O1 [doxorubicin] |  | highly sensitive |  |
